Article PMC7483469, “The overexpression of OsACBP5 protects transgenic rice against necrotrophic, hemibiotrophic and biotrophic pathogens” (Scientific Reports, 2020)

Molecular target: T1, (His)6-OsACBP5; rOsACBP5 (Oryza sativa, UniProt Q10P83)
T1 construct: gene ACBP5; N-terminal (His)6-tag, plasmid pOS543 (from pRSETA), E. coli BL21(DE3) Star pLysS, soluble fraction, HisTrap
T1 sequence (Q10P83 32-569): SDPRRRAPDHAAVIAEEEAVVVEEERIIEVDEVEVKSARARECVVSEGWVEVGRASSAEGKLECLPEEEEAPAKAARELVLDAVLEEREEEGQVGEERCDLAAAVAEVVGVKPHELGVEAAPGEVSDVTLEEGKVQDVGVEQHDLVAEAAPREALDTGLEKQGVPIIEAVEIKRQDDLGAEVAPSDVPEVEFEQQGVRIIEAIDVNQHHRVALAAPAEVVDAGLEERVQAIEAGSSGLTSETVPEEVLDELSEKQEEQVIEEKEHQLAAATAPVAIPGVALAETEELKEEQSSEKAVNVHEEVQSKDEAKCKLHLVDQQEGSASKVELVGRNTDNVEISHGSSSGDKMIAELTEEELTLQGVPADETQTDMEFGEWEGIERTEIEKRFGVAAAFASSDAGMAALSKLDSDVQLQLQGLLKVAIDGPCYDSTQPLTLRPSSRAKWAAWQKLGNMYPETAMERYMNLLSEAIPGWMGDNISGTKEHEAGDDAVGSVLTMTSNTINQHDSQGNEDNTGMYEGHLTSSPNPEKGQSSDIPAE
Assay: isothermal titration calorimetry
Format: binding

Kd: 59.5 nM
SMILES: CC/C=C\C/C=C\C/C=C\CCCCCCCC(=O)SCCNC(=O)CCNC(=O)[C@H](O)C(C)(C)COP(=O)(O)OP(=O)(O)OC[C@H]1O[C@@H](n2cnc3c(N)ncnc32)[C@H](O)[C@@H]1OP(=O)(O)O [18:3-acyl-CoA ester]
